Test results taken from ChEMBL document CHEMBL1127129, “N,N-disubstituted acetamidines as high affinity sigma receptor ligands” (Bioorg Med Chem Lett, 1993).

biological target: Glutamate NMDA receptor; experiment: The compound was evaluated for binding affinity against NMDA receptor ion-channel site using [3H]-MK 801 radioligand in rat brain membranes; assay type: cell membranes

Row | Structure (SMILES) | IC50
1 | C/C(=N\c1ccccc1C)Nc1ccccc1C | 10 µM
2 | C/C(=N\C12CC3CC(CC(C3)C1)C2)Nc1ccccc1C | 10 µM
3 | C/C(=N\C1CCCCC1)Nc1ccccc1C | 10 µM
4 | C/C(=N\C1CC2CCC1C2)Nc1ccccc1C (configuration not stated) | 80 µM
5 | C/C(=N\C1CCCCC1)NC12CC3CC(CC(C3)C1)C2 | 10 µM
6 | C/C(=N\C12CC3CC(CC(C3)C1)C2)NC12CC3CC(CC(C3)C1)C2 | 10 µM
7 | C/C(=N\c1ccc(Br)cc1C)Nc1ccc(Br)cc1C | 9.11 µM
